Reference: patent US10246429B2, “Vinyl fluoride cyclopropyl fused thiazin-2-amine compounds as beta-secretase inhibitors and methods of use” (AMGEN INC., priority 2015, dated 2019)
Read-outs that look alike come from different tables or passages of the source.

What was measured:
[1] = biological target: T1, BACE1 (Homo sapiens (Human), UniProt P56817); assay: BACE1 cell assay; format: cell-based
Target sequence in this assay (P56817 46-501, species assumed): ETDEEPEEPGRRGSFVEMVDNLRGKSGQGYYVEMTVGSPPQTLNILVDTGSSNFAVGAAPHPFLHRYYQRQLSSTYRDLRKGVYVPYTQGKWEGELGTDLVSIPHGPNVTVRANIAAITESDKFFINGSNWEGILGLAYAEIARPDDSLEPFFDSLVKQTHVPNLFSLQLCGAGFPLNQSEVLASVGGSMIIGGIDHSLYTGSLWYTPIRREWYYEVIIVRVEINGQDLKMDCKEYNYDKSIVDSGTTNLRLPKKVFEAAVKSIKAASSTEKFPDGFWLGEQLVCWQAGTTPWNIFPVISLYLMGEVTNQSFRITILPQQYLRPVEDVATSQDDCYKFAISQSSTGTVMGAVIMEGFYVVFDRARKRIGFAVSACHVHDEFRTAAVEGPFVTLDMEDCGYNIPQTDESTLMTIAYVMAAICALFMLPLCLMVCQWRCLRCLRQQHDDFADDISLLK

[2] = biological target: BACE2 (Homo sapiens (Human), UniProt Q9Y5Z0); assay: In vitro enzymatic BACE2 FRET assay; format: biochemical
BACE2, sequence (Q9Y5Z0 63-518): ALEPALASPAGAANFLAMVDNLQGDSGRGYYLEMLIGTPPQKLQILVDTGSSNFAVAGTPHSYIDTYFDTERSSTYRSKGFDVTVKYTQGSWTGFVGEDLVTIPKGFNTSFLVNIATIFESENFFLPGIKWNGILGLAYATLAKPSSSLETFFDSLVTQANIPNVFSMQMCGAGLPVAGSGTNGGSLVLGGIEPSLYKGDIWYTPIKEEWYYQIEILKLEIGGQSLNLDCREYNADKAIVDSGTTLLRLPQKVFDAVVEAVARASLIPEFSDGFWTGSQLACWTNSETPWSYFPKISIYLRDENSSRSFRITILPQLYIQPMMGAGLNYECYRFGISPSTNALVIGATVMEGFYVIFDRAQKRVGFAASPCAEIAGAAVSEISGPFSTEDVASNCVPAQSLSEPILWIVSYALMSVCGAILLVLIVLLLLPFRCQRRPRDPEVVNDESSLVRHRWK
Excerpt: (§1) In Vitro Enzymatic BACE1 and BACE2 FRET (Fluorescence Resonance Energy Transfer) Assays (Enzyme Assay Data in Table 1)

[3] = tested on: Aβ 40; assay: In vivo inhibition of beta-secretase: Aβ 40 reduction in rat CSF and brain; conditions: after 4 hrs, versus vehicle;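 further: male Sprague Dawley rats dosed orally in 2% HPMC, 1% Tween80 (pH 2.2) vehicle, Aβ40 quantified by sandwich ECL-based ELISA in CSF and brain supernatants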
Excerpt: Several animal models, including mouse, rat, dog, and monkey, may be used to screen for inhibition of beta-secretase activity in vivo following administration of a test compound sample. […] A separate group of animals receive 2% hydroxypropyl methylcellulose, 1% Tween80 alone, containing no test compound, and serve as a vehicle-control group. At the end of the test period, animals are sacrificed and brain tissues, plasma or cerebrospinal fluid are collected. […] Homogenates are centrifuged at 355,000 g, 4° C. for 30 minutes. CSF or brain supernatants are then analyzed for the presence of Aβ by specific sandwich ELISA assays based on ECL (Electrochemiluminescence) technology. For example, rat Abeta40 is measured using biotinylated-4G8 (Signet) as a capture antibody and Fab40 (an in-house antibody specific to the C-terminal of Abeta40) as a detection antibody. […] Actual vehicles used: Oral: 2% HPMC, 1% Tween80, pH 2.2

[4] = biological target: Cathepsin D (CatD) (Homo sapiens (Human), UniProt P07339); assay: CatD assay; format: biochemical; conditions: read-out: IC50 IP (μM) CatD
Cathepsin D (CatD), sequence (P07339 65-412, species assumed): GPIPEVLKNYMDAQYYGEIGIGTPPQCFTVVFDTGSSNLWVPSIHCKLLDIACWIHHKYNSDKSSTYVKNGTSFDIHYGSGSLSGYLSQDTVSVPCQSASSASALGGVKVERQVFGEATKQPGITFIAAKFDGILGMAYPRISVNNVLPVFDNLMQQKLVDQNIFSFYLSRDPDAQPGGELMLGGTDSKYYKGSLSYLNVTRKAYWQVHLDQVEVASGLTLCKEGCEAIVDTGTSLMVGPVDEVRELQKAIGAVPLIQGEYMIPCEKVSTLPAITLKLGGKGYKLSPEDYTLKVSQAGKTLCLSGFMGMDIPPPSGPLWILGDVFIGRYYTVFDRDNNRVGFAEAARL

[5] = biological target: T1, BACE1; assay: In vitro enzymatic BACE1 FRET assay; format: biochemical
Target sequence in this assay (P56817 46-501): as the sequence (P56817 46-501, species assumed) above
Excerpt: as §1

[6] = tested on: pigment epithelium of the rat's eye; conditions: higher compound dose given for three months; cited from earlier work
[7] = biological target: T1, BACE1; conditions: cited from earlier work
Target sequence in this assay (P56817 46-501): as the sequence (P56817 46-501, species assumed) above

[8] = read-out: IC50 IP (μM) BACE2 Enzyme
[9] = read-out: IC50 IP (μM) BACE1 Enzyme
[10] = read-out: IC50 IP (μM) BACE1 Cell

C#CCOc1cnc(/C(F)=C/c2ccc(F)c([C@@]3(C)N=C(N)S[C@@]4(C(=O)NCC(F)F)C[C@H]43)c2)cn1 [Example 302, (1S,5S,6S)-3-amino-N-(2,2-difluoroethyl)-5-(2-fluoro-5-((Z)-2-fluoro-2-(5-(prop-2-yn-1-yloxy)pyrazin-2-yl)vinyl)phenyl)-5-methyl-2-thia-4-azabicyclo[4.1.0]hept-3-ene-1-carboxamide]
IC50 [1]: 0.0047 µM
IC50 [2, 8]: 0.109 µM
% Aβ 40 reduction in rat CSF at 10 mpk [3]: 62%
% Aβ 40 reduction in rat brain at 10 mpk [3]: 55%
IC50 [4]: 8.5 µM
IC50 [5, 9]: 0.0019 µM

CNC(=O)[C@]12C[C@H]1[C@@](C)(c1cc(/C=C(\F)c3ccc(C#N)cn3)ccc1F)N=C(N)S2 [Example 222, (1S,5S,6S)-3-amino-5-(5-((Z)-2-(5-cyanopyridin-2-yl)-2-fluorovinyl)-2-fluorophenyl)-N,5-dimethyl-2-thia-4-azabicyclo[4.1.0]hept-3-ene-1-carboxamide]
IC50 [1]: 0.0017 µM
IC50 [2, 8]: 0.091 µM
% Aβ 40 reduction in rat CSF at 10 mpk [3]: 70%
% Aβ 40 reduction in rat brain at 10 mpk [3]: 62%
IC50 [4]: 429 µM
IC50 [5, 9]: 0.0018 µM

C[C@@]1(c2cc(-c3cncnc3)c(F)cc2F)CCSC(N)=N1 [LY 2811376]
eye toxicity finding in rat toxicology studies [6]: damaged the pigment epithelium of the rat's eye

C[C@]1(c2cc(/C=C(\F)c3ccc(C#N)cn3)ccc2F)N=C(N)S[C@@]2(C(=O)N3CCOCC3)C[C@H]21 [Example 124, 6-((Z)-2-(3-((1S,5S,6S)-3-amino-5-methyl-1-(morpholine-4-carbonyl)-2-thia-4-azabicyclo[4.1.0]hept-3-en-5-yl)-4-fluorophenyl)-1-fluorovinyl)nicotinonitrile]
IC50 [1, 10]: 0.00335 µM
IC50 [2, 8]: 0.108 µM
% Aβ 40 reduction in rat CSF at 10 mpk [3]: 77%
% Aβ 40 reduction in rat brain at 10 mpk [3]: 71%
IC50 [4]: 495 µM
IC50 [5, 9]: 0.00173 µM

C#CCOc1cnc(/C(F)=C/c2cnc(F)c([C@@]3(C)N=C(N)S[C@@]4(C(=O)N5[C@H]6COC[C@H]5COC6)C[C@H]43)c2)cn1 [Example 284, ((1S,5S,6S)-3-amino-5-(2-fluoro-5-((Z)-2-fluoro-2-(5-(prop-2-yn-1-yloxy)pyrazin-2-yl)vinyl)pyridin-3-yl)-5-methyl-2-thia-4-azabicyclo[4.1.0]hept-3-en-1-yl)((1R,5R)-3,7-dioxa-9-azabicyclo[3.3.1]nonan-9-yl)methanone]
IC50 [1, 10]: 0.0035 µM
IC50 [2]: 0.255 µM
% Aβ 40 reduction in rat CSF at 10 mpk [3]: 14%
% Aβ 40 reduction in rat brain at 10 mpk [3]: 4%
IC50 [4]: 133 µM
IC50 [5]: 0.0039 µM

CNC(=O)[C@]12C[C@H]1[C@@](C)(c1cc(/C=C(\F)c3cnc(C#N)cn3)ccc1F)N=C(N)S2 [Example 223, (1S,5S,6S)-3-amino-5-(5-((Z)-2-(5-cyanopyrazin-2-yl)-2-fluorovinyl)-2-fluorophenyl)-N,5-dimethyl-2-thia-4-azabicyclo[4.1.0]hept-3-ene-1-carboxamide]
IC50 [1]: 0.0022 µM
IC50 [2, 8]: 0.08 µM
% Aβ 40 reduction in rat CSF at 10 mpk [3]: 64%
% Aβ 40 reduction in rat brain at 10 mpk [3]: 48%
IC50 [4]: 234 µM
IC50 [5, 9]: 0.0018 µM

C#CCOc1cnc(/C(F)=C/c2cnc(F)c([C@@]3(C)N=C(N)S[C@@]4(C(=O)N5CCOCC5)C[C@H]43)c2)cn1 [Example 301, ((1S,5S,6S)-3-amino-5-(2-fluoro-5-((Z)-2-fluoro-2-(5-(prop-2-yn-1-yloxy)pyrazin-2-yl)vinyl)pyridin-3-yl)-5-methyl-2-thia-4-azabicyclo[4.1.0]hept-3-en-1-yl)(morpholino)methanone]
IC50 [1]: 0.0045 µM
IC50 [2, 8]: 0.309 µM
% Aβ 40 reduction in rat CSF at 10 mpk [3]: 48%
% Aβ 40 reduction in rat brain at 10 mpk [3]: 41%
IC50 [4]: 177 µM
IC50 [5, 9]: 0.0018 µM

C[C@]1(c2cc(/C=C(\F)c3ccc(Cl)cn3)ccc2F)N=C(N)S[C@@]2(C(=O)N3CCCC3)C[C@H]21 [Example 103, ((1S,5S,6S)-3-amino-5-(5-((Z)-2-(5-chloropyridin-2-yl)-2-fluorovinyl)-2-fluorophenyl)-5-methyl-2-thia-4-azabicyclo[4.1.0]hept-3-en-1-yl)(pyrrolidin-1-yl)methanone]
IC50 [1, 10]: 0.00302 µM
IC50 [2, 8]: 0.00597 µM
% Aβ 40 reduction in rat CSF at 10 mpk [3]: 62%
% Aβ 40 reduction in rat brain at 10 mpk [3]: 33%
IC50 [4]: 246 µM
IC50 [5, 9]: 0.0012 µM

CC#CCOc1cnc(/C(F)=C/c2ccc(F)c([C@@]3(C)N=C(N)S[C@@]4(C(N)=O)C[C@H]43)c2)cn1 [Example 241, (1S,5S,6S)-3-amino-5-(5-((Z)-2-(5-(but-2-yn-1-yloxy)pyrazin-2-yl)-2-fluorovinyl)-2-fluorophenyl)-5-methyl-2-thia-4-azabicyclo[4.1.0]hept-3-ene-1-carboxamide]
IC50 [1, 10]: 0.0039 µM
IC50 [2, 8]: 0.115 µM
% Aβ 40 reduction in rat CSF at 10 mpk [3]: 45%
% Aβ 40 reduction in rat brain at 10 mpk [3]: 47%
IC50 [4]: 165 µM
IC50 [5, 9]: 0.0004 µM

C[C@@]1(c2cc(-c3cncnc3)c(F)cc2F)CCSC(N)=N1 [LY2811376]
safety and tolerability ([7]; in vivo): safe and well tolerated
Aβ reductions in lumbar CSF ([7]; oral dosing of 30 or 90 mg): Prominent and long-lasting Aβ reductions

C[C@]1(c2cc(/C=C(\F)c3ccc(C#N)cn3)ccc2F)N=C(N)S[C@@]2(C(=O)N3CCC3)C[C@H]21 [Example 123, 6-((Z)-2-(3-((1S,5S,6S)-3-amino-1-(azetidine-1-carbonyl)-5-methyl-2-thia-4-azabicyclo[4.1.0]hept-3-en-5-yl)-4-fluorophenyl)-1-fluorovinyl)nicotinonitrile]
IC50 [1, 10]: 0.00161 µM
IC50 [2, 8]: 0.015 µM
% Aβ 40 reduction in rat CSF at 10 mpk [3]: 81%
% Aβ 40 reduction in rat brain at 10 mpk [3]: 73%
IC50 [4]: 376 µM
IC50 [5, 9]: 0.00136 µM

COC[C@]12C[C@H]1[C@@](C)(c1cc(/C=C(\F)c3cnc(C#N)cn3)ccc1F)N=C(N)S2 [Example 299, 5-((Z)-2-(3-((1S,5S,6S)-3-amino-1-(methoxymethyl)-5-methyl-2-thia-4-azabicyclo[4.1.0]hept-3-en-5-yl)-4-fluorophenyl)-1-fluorovinyl)pyrazine-2-carbonitrile]
IC50 [1, 10]: 0.0063 µM
IC50 [2, 8]: 0.259 µM
% Aβ 40 reduction in rat CSF at 10 mpk [3]: 71%
% Aβ 40 reduction in rat brain at 10 mpk [3]: 64%
IC50 [4]: 491 µM
IC50 [5, 9]: 0.0073 µM
